According to US20240317722A1, “HETEROARYL-3-PIPERIDINEDIONE COMPOUND AND USE THEREOF” (Medshine Discovery Inc., priority 2021, published 2024):
pIC50: −log10 of the molar value.

Legend:
DMS114 = assay: Anti-proliferative effect in DMS114 (CellTiter-Glo); format: cell-based; conditions: DMS114, 3 days; for pIC50: Homo sapiens, DMS-114, 72 h
Method: (§1) This assay studied the inhibitory effect of the compounds on cell proliferation by detecting the effect of the test compounds on the in vitro activity of tumor cells NCI-H1581, DMS114, NCI-H69 and NCI-H526.
(§2) The tumor cell lines were cultured in an incubator at 37° C., 5% CO2 or 0% CO2 according to the above culture conditions. The cells were periodically passaged, and cells in logarithmic growth phase were taken for plating. • 2. Cell plating • (1). Cells were stained with trypan blue and viable cells were counted.
(§3) • (3). 100 μL of cell suspension was added to each well of the culture plate, and culture medium without cells was added to the blank control well. • (4). The plate was incubated overnight in an incubator at 37° C., 5% CO2 or 0% CO2, and 100% relative humidity. • 3. Preparation of compound stock solution
(§4) Preparation of 1000× compound stock solution: Compound was dissolved in DMSO to 10 mM, then a portion was taken out and diluted to 1000 times the highest acting concentration. The diluted stock solution was dispensed for later use. • 4. Preparation of 5× compound working solution and treatment of cells with compounds. The working solutions were prepared freshly at each time for use. • (1). Preparation of 5× compound working solution: 119.4 μL of cell culture medium was added to a 96-well plate with a V-shaped bottom. 96 μL of DMSO-cell culture medium mix solution (with DMSO content of 0.5%) was added to subsequent gradient wells. 0.6 μL of the compound from the 1000× compound stock solution was added to the cell culture medium in the 96-well plate, and mixed to uniform with a pipette. A pipette was used to draw 24 μL of the compound-cell culture medium mixture into subsequent wells, and the mixture was mixed well by a pipette each time. • (2). Dosing: 25 μL of 5× compound working solution was added to the cell culture plate. 25 μL of DMSO-cell culture medium mix solution (with DMSO content of 0.5%) was added to the vehicle control and blank control. • (3). The 96-well cell plate was placed back into the incubator and cultured for 3 days. • 5. CellTiter-Glo luminescence cell viability detection
(§5) The following steps were performed according to the instruction of Promega CellTiter-Glo luminescence cell viability detection kit (Promega-G7573). • (1). The CellTiter-Glo buffer was thawed and allowed to stand to reach room temperature; • (2). CellTiter-Glo substrate was allowed to stand to reach room temperature; • (3). 10 mL of CellTiter-Glo buffer was added to CellTiter-Glo substrate in a bottle to dissolve the substrate to formulate CellTiter-Glo working solution; • (4). […] The culture plates were left at room temperature for 10 minutes to stabilize the luminescence signal; • (9). The luminous signal was detected on the 2104 En Vision plate reader. • 6. […]

NCI-H526 = assay: Anti-proliferative effect in NCI-H526 (CellTiter-Glo); format: cell-based; conditions: NCI-H526, 3 days; for pIC50: Homo sapiens, 72 h
Method: as §1, §2, §3, §4, §5

[1] = Pharmacokinetics of the compound in rats; format: in vivo, SD rats
Source text: In this study, SD male rats were selected as the test animals, and the LC/MS/MS method was used to quantitatively determine the drug concentration at different time points in the plasma of rats intravenously or orally administered the test compound, so as to evaluate the pharmacokinetic profile of the test compound in rats.
Sprague Dawley (SD) rats (male, 200-300 g, 7-10 weeks old, Beijing Vital River).
A clear solution or suspension of the test compound was intravenously injected into SD rats (fasted overnight) via tail or given to SD rats (fasted overnight) by gavage. For intravenous injection administration, blood was collected from the jugular vein at 0 h (before administration) and 0.083, 0.25, 0.5, 1, 2, 4, 6, 8, and 24 h after administration. Each sample was collected about 0.25 mL. Heparin sodium was added to anti-coagulate. Blood samples were collected and placed on wet ice, and centrifuged within 1 hour to separate the plasma (centrifugation conditions: 6000 g, 3 minutes, 2-8° C.). Plasma samples were stored in a −80° C. refrigerator before analysis; For oral gavage administration, blood was collected from the jugular vein at 0 h (before administration) and 0.083, 0.25, 0.5, 1, 2, 4, 6, 8, and 24 h after administration. Each sample was collected about 0.25 mL. Heparin sodium was added to anti-coagulate. Blood samples were collected and placed on wet ice, and centrifuged within 1 hour to separate the plasma (centrifugation conditions: 6000 g, 3 minutes, 2-8° C.). Plasma samples were stored in an −80° C. refrigerator before analysis. Through blood drug concentration data at different time points, Phoenix WinNonlin8.2.0 was used to calculate pharmacokinetic parameters, providing parameters such as AUC0-t, AUC0-∞, MRT0-∞, Cmax, Tmax, and T1/2, etc. and their mean and standard deviation.

[2] = administration by gavage (10 mg/kg)

Structure (SMILES)	Max. IR (DMS114)	pIC50 (DMS114)	pIC50 (NCI-H526)	Max. IR (NCI-H526)	Area under the plasma concentration-time curve (0-inf) [1, 2]	Peak concentration [1, 2]	Time to peak [1, 2]	Area under the plasma concentration-time curve (0-inf) ([1]; intravenous injection (2 mg/kg))	bioavailability ([1]; male, Sprague-Dawley, rat, plasma, PO 10 mg/kg vs IV 2 mg/kg, read-out: Bioavailability F)	clearance ([1]; male, Sprague-Dawley, rat, plasma, intravenous injection (2 mg/kg))	Vd ([1]; male, Sprague-Dawley, rat, plasma, intravenous injection (2 mg/kg), read-out: Apparent volume of distribution)	half-life ([1]; male, Sprague-Dawley, rat, plasma, intravenous injection (2 mg/kg), read-out: Elimination half-life (converted))
COCCOc1cc(NC(=O)NCc2ccc3c(C4CCC(=O)NC4=O)coc3c2)cc(Cl)c1C (stereo not shown) [WX005]	89.45%	8.21	9.30	99.17%	264.34 µM·h	14.4 µM	5.33 h	464.10 µM·h	11.4%	0.145 mL/min/kg	0.121 L/kg	11.1 h
COCCOc1cc(NC(=O)NCc2ccc3c(C4CCC(=O)NC4=O)noc3c2)cc(Cl)c1C (stereo not shown) [WX013]	87.56%	8.68	10.00	99.37%	–	–	–	–	–	–	–	–
